According to ChEMBL document CHEMBL1201862, “PubChem BioAssay data set” (2004):
Activity calls are given as the source filed them. For most assays here, no stated cut-off is given here; in the data, actives have a measured IC50 and inactives only a lower limit.

Columns and labels:
Type in all cases: functional
[1] = target: T1, Apoptotic protease-activating factor 1 (Homo sapiens, UniProt O14727)
T1 sequence (O14727 whole entry): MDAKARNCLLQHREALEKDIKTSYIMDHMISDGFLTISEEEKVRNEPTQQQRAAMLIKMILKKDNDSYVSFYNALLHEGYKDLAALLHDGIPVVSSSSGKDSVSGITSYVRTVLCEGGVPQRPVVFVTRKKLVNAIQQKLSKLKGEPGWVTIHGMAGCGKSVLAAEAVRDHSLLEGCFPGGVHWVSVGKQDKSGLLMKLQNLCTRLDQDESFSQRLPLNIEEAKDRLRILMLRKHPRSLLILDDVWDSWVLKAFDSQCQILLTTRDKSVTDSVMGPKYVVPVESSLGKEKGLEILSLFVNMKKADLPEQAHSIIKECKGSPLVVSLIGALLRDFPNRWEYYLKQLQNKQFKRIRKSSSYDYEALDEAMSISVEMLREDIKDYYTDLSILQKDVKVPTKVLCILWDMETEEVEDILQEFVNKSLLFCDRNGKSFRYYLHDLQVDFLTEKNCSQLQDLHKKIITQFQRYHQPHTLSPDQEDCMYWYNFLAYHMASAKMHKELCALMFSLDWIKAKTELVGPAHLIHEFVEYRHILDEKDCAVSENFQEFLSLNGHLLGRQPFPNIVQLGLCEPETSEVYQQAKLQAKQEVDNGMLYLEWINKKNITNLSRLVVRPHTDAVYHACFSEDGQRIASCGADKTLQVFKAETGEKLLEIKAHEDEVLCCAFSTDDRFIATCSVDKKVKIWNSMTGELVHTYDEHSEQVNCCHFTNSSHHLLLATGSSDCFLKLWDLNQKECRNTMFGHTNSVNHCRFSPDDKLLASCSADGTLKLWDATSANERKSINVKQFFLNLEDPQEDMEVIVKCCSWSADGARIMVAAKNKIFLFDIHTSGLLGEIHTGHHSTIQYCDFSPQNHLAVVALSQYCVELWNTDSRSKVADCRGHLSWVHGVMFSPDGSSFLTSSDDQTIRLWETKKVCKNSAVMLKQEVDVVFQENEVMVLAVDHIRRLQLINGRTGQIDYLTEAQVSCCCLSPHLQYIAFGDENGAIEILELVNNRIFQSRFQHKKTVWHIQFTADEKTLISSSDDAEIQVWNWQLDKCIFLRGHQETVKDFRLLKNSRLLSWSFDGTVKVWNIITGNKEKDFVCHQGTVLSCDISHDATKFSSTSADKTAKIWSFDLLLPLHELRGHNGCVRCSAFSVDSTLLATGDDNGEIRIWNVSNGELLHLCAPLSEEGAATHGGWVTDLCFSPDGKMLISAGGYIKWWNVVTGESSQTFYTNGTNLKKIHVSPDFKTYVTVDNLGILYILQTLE

[2] = target: T2, Sentrin-specific protease 8 (Homo sapiens, UniProt Q96LD8);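 further: luminescence read-out of SENP8 inhibition, dose-response confirmation following an ultra-high-throughput screen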
T2 sequence (Q96LD8 whole entry): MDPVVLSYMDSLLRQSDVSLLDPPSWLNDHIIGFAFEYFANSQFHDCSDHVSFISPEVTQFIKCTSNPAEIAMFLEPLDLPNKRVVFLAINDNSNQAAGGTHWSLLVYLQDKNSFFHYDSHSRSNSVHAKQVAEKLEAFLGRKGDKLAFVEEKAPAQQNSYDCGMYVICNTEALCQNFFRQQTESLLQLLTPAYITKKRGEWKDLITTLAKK

Caspase-3 = target: T3, Caspase-3 (Homo sapiens, UniProt P42574);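 further: Dose-response selectivity test against caspase-3 for candidate inhibitors of sentrin-specific proteases (SENPs)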
T3 sequence (P42574 whole entry): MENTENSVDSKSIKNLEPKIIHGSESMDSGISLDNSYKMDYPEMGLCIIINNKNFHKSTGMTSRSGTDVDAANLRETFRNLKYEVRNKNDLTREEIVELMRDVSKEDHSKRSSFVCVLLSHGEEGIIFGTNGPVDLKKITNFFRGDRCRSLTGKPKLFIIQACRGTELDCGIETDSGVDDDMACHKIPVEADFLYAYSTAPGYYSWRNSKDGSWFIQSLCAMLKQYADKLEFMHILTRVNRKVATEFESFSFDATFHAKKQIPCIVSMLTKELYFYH

[3] = target: T4, Sentrin-specific protease 6 (Homo sapiens, UniProt Q9GZR1);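 further: Luminescence-based dose-response confirmatory assay of SENP6 inhibition, following up an ultra-high-throughput screen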
T4 sequence (Q9GZR1 whole entry): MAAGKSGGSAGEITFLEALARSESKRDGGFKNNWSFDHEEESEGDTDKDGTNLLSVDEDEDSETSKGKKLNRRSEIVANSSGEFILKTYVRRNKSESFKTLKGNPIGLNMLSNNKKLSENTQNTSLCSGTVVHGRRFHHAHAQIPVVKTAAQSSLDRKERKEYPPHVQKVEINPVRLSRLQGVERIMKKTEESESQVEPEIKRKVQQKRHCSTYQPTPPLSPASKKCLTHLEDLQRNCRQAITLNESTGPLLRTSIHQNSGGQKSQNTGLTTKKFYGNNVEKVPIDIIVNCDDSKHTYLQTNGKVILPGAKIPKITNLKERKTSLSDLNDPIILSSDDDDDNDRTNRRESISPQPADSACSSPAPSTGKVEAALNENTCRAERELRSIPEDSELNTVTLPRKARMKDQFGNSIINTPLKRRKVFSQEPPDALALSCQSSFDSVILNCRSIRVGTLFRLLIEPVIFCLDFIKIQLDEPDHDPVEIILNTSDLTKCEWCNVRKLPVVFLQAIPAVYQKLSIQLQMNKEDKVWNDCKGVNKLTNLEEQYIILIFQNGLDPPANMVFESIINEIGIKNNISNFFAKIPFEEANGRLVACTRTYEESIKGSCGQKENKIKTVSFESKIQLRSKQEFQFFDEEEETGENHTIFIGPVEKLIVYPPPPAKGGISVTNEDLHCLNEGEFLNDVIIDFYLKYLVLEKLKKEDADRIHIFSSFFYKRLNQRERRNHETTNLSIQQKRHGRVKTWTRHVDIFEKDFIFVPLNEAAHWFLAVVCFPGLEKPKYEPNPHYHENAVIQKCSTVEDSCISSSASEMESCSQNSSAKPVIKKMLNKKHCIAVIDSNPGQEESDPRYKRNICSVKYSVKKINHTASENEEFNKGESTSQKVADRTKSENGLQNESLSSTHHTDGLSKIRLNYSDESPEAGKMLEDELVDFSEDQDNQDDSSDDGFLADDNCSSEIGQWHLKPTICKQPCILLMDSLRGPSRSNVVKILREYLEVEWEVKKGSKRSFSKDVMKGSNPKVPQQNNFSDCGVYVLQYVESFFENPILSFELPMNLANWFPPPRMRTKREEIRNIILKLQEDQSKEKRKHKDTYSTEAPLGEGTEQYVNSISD

[4] = target: Induced myeloid leukemia cell differentiation protein Mcl-1 (Homo sapiens, UniProt Q07820)
Sequence of Induced myeloid leukemia cell differentiation protein Mcl-1 (Q07820 whole entry): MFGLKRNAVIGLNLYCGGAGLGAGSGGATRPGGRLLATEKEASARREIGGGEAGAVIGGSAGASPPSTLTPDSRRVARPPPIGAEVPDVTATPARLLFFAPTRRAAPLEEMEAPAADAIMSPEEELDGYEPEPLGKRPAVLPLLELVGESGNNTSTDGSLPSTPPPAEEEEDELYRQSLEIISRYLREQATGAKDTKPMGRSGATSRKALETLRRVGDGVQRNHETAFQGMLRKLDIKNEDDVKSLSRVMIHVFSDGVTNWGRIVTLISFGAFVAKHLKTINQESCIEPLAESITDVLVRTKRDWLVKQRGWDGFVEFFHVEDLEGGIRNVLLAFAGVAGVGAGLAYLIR

| SMILES | IC50 [1] | IC50 [2] | IC50 (Caspase-3) | IC50 [3] | IC50 [4] |
| --- | --- | --- | --- | --- | --- |
| O=C1C(Cl)=C(NCCN2CCCCC2)C(=O)c2ccccc21 | 5.4 µM (active) |  |  |  |  |
| Cc1oc2c(c1C(=O)c1ccccc1)C(=O)C(=O)c1ccccc1-2 |  | 12.8 µM (active) | 29.3 µM (active) | 6.87 µM (active) |  |
| COc1ccc(C(=O)Nc2nc3c(s2)Cc2cc(OC)ccc2-3)cc1 | 51.1 µM (active) | 2.29 µM (active) | 3.45 µM (active) | 1.65 µM (active) | 3.75 µM (active) |
| O=C1CCCC2=C1C1(O)C(=O)c3ccccc3C1(O)O2 (stereo unspecified) | 13.1 µM (active) |  |  |  |  |
| CC(/C=C1\SC(=S)N(NS(=O)(=O)c2ccccc2)C1=O)=C\c1ccccc1 |  | 2.86 µM (active) | 7.87 µM (active) | 2.64 µM (active) | 20.6 µM (active) |
| CCN1/C(=C/c2ccc3cc(C)ccc3[n+]2CC)Sc2cc(C)c(C)cc21 | 23.9 µM (active) |  |  |  |  |
| O=C(O)COc1ccc(/C=N/NC(=O)c2ccc(-c3csc(Nc4ccc(Cl)cc4)n3)cc2)cc1 |  |  |  |  | 0.886 µM (active) |
